Species: Rattus norvegicus
Assay: Open TG-GATES - Regimen: Daily Repeat
Assay type: toxicity, organism-based, Sprague-Dawley
Parameters: regimen Daily Repeat, gender Male, age 6 weeks
Conditions: in vivo, po, 200 mg/kg, route gavage, dose level High; for Bas / Eos / Fbg / Hb / Ht / Lym / MCHC / MCV / Mono / Neu / PT / RBC / Ret / WBC / APTT: tissue Blood; for KIDNEY_L / KIDNEY_R / KIDNEY_TOTAL: tissue Kidney; for ALP / ALT / AST / BUN / CRE / Ca / Cl / DBIL / GLC / IP / K / RALB / TBIL / TC / TG / TP / gamma-GTP: tissue Plasma

CCCCC1C(=O)N(c2ccccc2)N(c2ccccc2)C1=O [PHENYLBUTAZONE]
Bas (72 h, time 3 day): 0% | Eos (72 h, time 3 day): 1% | Fbg (72 h, time 3 day): 309.8 mg/dL | Hb (72 h, time 3 day): 12.5 g/dL | Ht (72 h, time 3 day): 37.3% | Lym (72 h, time 3 day): 74.4% | MCHC (72 h, time 3 day): 33.5% | MCV (72 h, time 3 day): 63.9 fL | Mono (72 h, time 3 day): 9.4% | Neu (72 h, time 3 day): 15.8% | PT (72 h, time 3 day): 11.7 s | RBC (72 h, time 3 day): 586.8 x10_4/ul | Ret (72 h, time 3 day): 8.1% | WBC (72 h, time 3 day): 200.4 x10_2/uL | KIDNEY_L (72 h, time 3 day): 1.1 g | KIDNEY_R (72 h, time 3 day): 1.1 g | KIDNEY_TOTAL (72 h, time 3 day): 2.2 g | ALP (72 h, time 3 day): 627.8 IU/L | ALT (72 h, time 3 day): 27 IU/L | AST (72 h, time 3 day): 55.2 IU/L | BUN (72 h, time 3 day): 20.4 mg/dL | CRE (72 h, time 3 day): 0.6 mg/dL | Ca (72 h, time 3 day): 10.2 mg/dL | Cl (72 h, time 3 day): 106 meq/L | DBIL (72 h, time 3 day): 0 mg/dL | GLC (72 h, time 3 day): 189.2 mg/dL | IP (72 h, time 3 day): 7 mg/dL | K (72 h, time 3 day): 5.1 meq/L | RALB (72 h, time 3 day): 3.3 g/dL | TBIL (72 h, time 3 day): 0.2 mg/dL | TC (72 h, time 3 day): 81.8 mg/dL | TG (72 h, time 3 day): 168.6 mg/dL | TP (72 h, time 3 day): 5.8 g/dL | gamma-GTP (72 h, time 3 day): 2.2 IU/L | TERMINAL_BW ([…], time 7 day): 254.1 g | TERMINAL_BW ([…], time 14 day): 296 g | TERMINAL_BW ([…], time 28 day): 348.8 g | APTT ([…], time 7 day): 17.1 s | Bas ([…], time 7 day): 0% | Eos ([…], time 7 day): 1% | Fbg ([…], time 7 day): 250 mg/dL | Hb ([…], time 7 day): 13.4 g/dL | Ht ([…], time 7 day): 40.3% | Lym ([…], time 7 day): 77% | MCHC ([…], time 7 day): 33.4% | MCV ([…], time 7 day): 63.9 fL | Mono ([…], time 7 day): 4.6% | Neu ([…], time 7 day): 17.6% | PT ([…], time 7 day): 11.7 s | RBC ([…], time 7 day): 631.8 x10_4/ul | Ret ([…], time 7 day): 7.4% | WBC ([…], time 7 day): 199.8 x10_2/uL | APTT ([…], time 14 day): 17.5 s | Bas ([…], time 14 day): 0% | Eos ([…], time 14 day): 0.4% | Fbg ([…], time 14 day): 257.2 mg/dL | Hb ([…], time 14 day): 13.8 g/dL | Ht ([…], time 14 day): 41.2% | Lym ([…], time 14 day): 78.8% | MCHC ([…], time 14 day): 33.4% | MCV ([…], time 14 day): 59.6 fL | Mono ([…], time 14 day): 4.4% | Neu ([…], time 14 day): 16.2% | RBC ([…], time 14 day): 692.2 x10_4/ul | Ret ([…], time 14 day): 5.8% | WBC ([…], time 14 day): 162.2 x10_2/uL | APTT ([…], time 28 day): 15.6 s | Bas ([…], time 28 day): 0% | Eos ([…], time 28 day): 0.4% | Fbg ([…], time 28 day): 273 mg/dL | Hb ([…], time 28 day): 13.3 g/dL | Ht ([…], time 28 day): 39.7% | Lym ([…], time 28 day): 76% | MCHC ([…], time 28 day): 33.4% | MCV ([…], time 28 day): 58 fL | Mono ([…], time 28 day): 3% | Neu ([…], time 28 day): 20.4% | RBC ([…], time 28 day): 684.8 x10_4/ul | Ret ([…], time 28 day): 6.4% | WBC ([…], time 28 day): 184.3 x10_2/uL | KIDNEY_L ([…], time 7 day): 1.1 g | KIDNEY_R ([…], time 7 day): 1.1 g | KIDNEY_TOTAL ([…], time 7 day): 2.2 g | KIDNEY_L ([…], time 14 day): 1.2 g | KIDNEY_R ([…], time 14 day): 1.2 g | KIDNEY_TOTAL ([…], time 14 day): 2.4 g | KIDNEY_L ([…], time 28 day): 1.4 g | KIDNEY_R ([…], time 28 day): 1.5 g | KIDNEY_TOTAL ([…], time 28 day): 2.9 g | ALP ([…], time 7 day): 763 IU/L | ALT ([…], time 7 day): 32 IU/L | AST ([…], time 7 day): 57.4 IU/L | BUN ([…], time 7 day): 20.2 mg/dL | CRE ([…], time 7 day): 0.6 mg/dL | Ca ([…], time 7 day): 10.7 mg/dL | Cl ([…], time 7 day): 105 meq/L | DBIL ([…], time 7 day): 0 mg/dL | GLC ([…], time 7 day): 201 mg/dL | IP ([…], time 7 day): 8.4 mg/dL | K ([…], time 7 day): 4.8 meq/L | RALB ([…], time 7 day): 3.9 g/dL | TBIL ([…], time 7 day): 0.3 mg/dL | TC ([…], time 7 day): 75.4 mg/dL | TG ([…], time 7 day): 113.8 mg/dL | TP ([…], time 7 day): 6.6 g/dL | gamma-GTP ([…], time 7 day): 2.8 IU/L | ALP ([…], time 14 day): 719.2 IU/L | ALT ([…], time 14 day): 30.4 IU/L | AST ([…], time 14 day): 63 IU/L | BUN ([…], time 14 day): 26.6 mg/dL | CRE ([…], time 14 day): 0.6 mg/dL | Ca ([…], time 14 day): 10.7 mg/dL | Cl ([…], time 14 day): 106.2 meq/L | DBIL ([…], time 14 day): 0.008 mg/dL | GLC ([…], time 14 day): 184.6 mg/dL | IP ([…], time 14 day): 8.4 mg/dL | K ([…], time 14 day): 4.3 meq/L | RALB ([…], time 14 day): 3.9 g/dL | TBIL ([…], time 14 day): 0.4 mg/dL | TC ([…], time 14 day): 69.6 mg/dL | TG ([…], time 14 day): 147.6 mg/dL | TP ([…], time 14 day): 6.4 g/dL | gamma-GTP ([…], time 14 day): 1.2 IU/L | ALP ([…], time 28 day): 413 IU/L | ALT ([…], time 28 day): 28.2 IU/L | AST ([…], time 28 day): 57.2 IU/L | BUN ([…], time 28 day): 24.2 mg/dL | CRE ([…], time 28 day): 0.6 mg/dL | Ca ([…], time 28 day): 10.5 mg/dL | Cl ([…], time 28 day): 106.8 meq/L | DBIL ([…], time 28 day): 0.02 mg/dL | GLC ([…], time 28 day): 174.2 mg/dL | IP ([…], time 28 day): 7.4 mg/dL | K ([…], time 28 day): 4.4 meq/L | RALB ([…], time 28 day): 3.9 g/dL | TBIL ([…], time 28 day): 0.3 mg/dL | TC ([…], time 28 day): 72.2 mg/dL | TG ([…], time 28 day): 166.2 mg/dL | TP ([…], time 28 day): 6.1 g/dL | gamma-GTP ([…], time 28 day): 1.8 IU/L

From ChEMBL document CHEMBL3885861, “Open TG-GATES”
